In ChEMBL document CHEMBL1201862, “PubChem BioAssay data set” (2004):
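Test compounds were applied to cells in 96-well plates for 48 hours at 5 doses. GI50 is the concentration that inhibits growth by half.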 Active and inactive are the calls of the source. Rule as the data show it: active = GI50 up to about 1.1 µM and inactive = higher.

What was measured:
Assay in all cases: NCI-60 cell line screen, 48 h
COLO 205 = system: COLO 205
MCF7 = system: MCF7
SK-MEL-28 = system: SK-MEL-28
SF-268 = system: SF-268
SNB-75 = system: SNB-75
SK-MEL-5 = system: SK-MEL-5
UO-31 = system: UO-31
786-0 = system: 786-0
TK-10 = system: TK-10
A549 = system: A549
SN12C = system: SN12C
UACC-62 = system: UACC-62
OVCAR-5 = system: OVCAR-5
SW-620 = system: SW-620
SF-295 = system: SF-295
NCI-H226 = system: NCI-H226
MDA-N = system: MDA-N
CCRF-CEM = system: CCRF-CEM
EKVX = system: EKVX
PC-3 = system: PC-3
HT-29 = system: HT-29
HCC 2998 = system: HCC 2998
SK-OV-3 = system: SK-OV-3
MOLT-4 = system: MOLT-4
T47D = system: T47D
HL-60 = system: HL-60
SK-MEL-2 = system: SK-MEL-2
SNB-19 = system: SNB-19
IGROV-1 = system: IGROV-1
M14 = system: M14
HCT-15 = system: HCT-15
A498 = system: A498
Malme-3M = system: Malme-3M
U-251 = system: U-251
MDA-MB-435 = system: MDA-MB-435
HCT-116 = system: HCT-116
Hs-578T = system: Hs-578T
NCI/ADR-RES = system: NCI/ADR-RES
NCI-H23 = system: NCI-H23
K562 = system: K562
CAKI-1 = system: CAKI-1
UACC-257 = system: UACC-257
DU-145 = system: DU-145
OVCAR-8 = system: OVCAR-8
LOX IMVI = system: LOX IMVI
MDA-MB-231 = system: MDA-MB-231
KM12 = system: KM12
HOP-92 = system: HOP-92
SF-539 = system: SF-539
NCI-H460 = system: NCI-H460
OVCAR-4 = system: OVCAR-4
ACHN = system: ACHN
SR = system: SR
BT-549 = system: BT-549
NCI-H522 = system: NCI-H522

## C/C=C(/COC(C)=O)C(=O)OC1C=C(C=O)C(C)(C)C=C1C (stereo not given)
COLO 205
  GI50: > 100 µM (inactive)
MCF7
  GI50: 87.7 µM (inactive)
SK-MEL-28
  GI50: > 100 µM (inactive)
SF-268
  GI50: > 100 µM (inactive)
SNB-75
  GI50: 43.6 µM (inactive)
SK-MEL-5
  GI50: > 100 µM (inactive)
UO-31
  GI50: > 100 µM (inactive)
786-0
  GI50: > 100 µM (inactive)
TK-10
  GI50: > 100 µM (inactive)
A549
  GI50: > 100 µM (inactive)
SN12C
  GI50: > 100 µM (inactive)
UACC-62
  GI50: > 100 µM (inactive)
OVCAR-5
  GI50: > 100 µM (inactive)
SW-620
  GI50: > 100 µM (inactive)
SF-295
  GI50: > 100 µM (inactive)
NCI-H226
  GI50: > 100 µM (inactive)
MDA-N
  GI50: > 100 µM (inactive)
CCRF-CEM
  GI50: 37.7 µM (inactive)
EKVX
  GI50: > 100 µM (inactive)
PC-3
  GI50: > 100 µM (inactive)
HT-29
  GI50: > 100 µM (inactive)
HCC 2998
  GI50: > 100 µM (inactive)
SK-OV-3
  GI50: > 100 µM (inactive)
MOLT-4
  GI50: > 10 µM (inactive)
T47D
  GI50: > 100 µM (inactive)
HL-60
  GI50: 45.1 µM (inactive)
SK-MEL-2
  GI50: > 100 µM (inactive)
SNB-19
  GI50: > 100 µM (inactive)
IGROV-1
  GI50: 96.6 µM (inactive)
M14
  GI50: > 100 µM (inactive)
HCT-15
  GI50: > 100 µM
A498
  GI50: > 100 µM (inactive)
Malme-3M
  GI50: > 100 µM (inactive)
U-251
  GI50: > 100 µM (inactive)
MDA-MB-435
  GI50: > 100 µM (inactive)
HCT-116
  GI50: > 100 µM (inactive)
Hs-578T
  GI50: > 100 µM (inactive)
NCI/ADR-RES
  GI50: > 100 µM (inactive)
NCI-H23
  GI50: > 100 µM (inactive)
K562
  GI50: 43.5 µM (inactive)
CAKI-1
  GI50: > 100 µM (inactive)
UACC-257
  GI50: > 100 µM (inactive)
DU-145
  GI50: > 100 µM (inactive)
OVCAR-8
  GI50: > 100 µM (inactive)
LOX IMVI
  GI50: > 100 µM (inactive)
MDA-MB-231
  GI50: > 100 µM (inactive)
KM12
  GI50: > 100 µM (inactive)
HOP-92
  GI50: > 100 µM (inactive)
SF-539
  GI50: > 100 µM (inactive)
NCI-H460
  GI50: > 100 µM (inactive)
OVCAR-4
  GI50: > 100 µM (inactive)
ACHN
  GI50: > 100 µM (inactive)
SR
  GI50: 27.5 µM (inactive)
BT-549
  GI50: > 100 µM (inactive)
NCI-H522
  GI50: > 100 µM (inactive)
